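Cells were grown in 96-well plates and exposed to each compound for 48 hours at five concentrations; endpoints were interpolated linearly between bracketing concentrations, or set to the highest concentration if not reached. TGI denotes the concentration required for complete inhibition of growth.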
Columns and labels:
Test in all cases: DTP human tumour cell line panel, 48 h
786-0 renal = tested on: 786-0 renal
A498 renal = tested on: A498 renal
A549 NSCLC = tested on: A549 NSCLC
ACHN renal = tested on: ACHN renal
CAKI-1 renal = tested on: CAKI-1 renal
CCRF-CEM leukemia = tested on: CCRF-CEM leukemia
COLO 205 colon = tested on: COLO 205 colon
DLD-1 colon = tested on: DLD-1 colon
DMS 273 small cell lung = tested on: DMS 273 small cell lung
EKVX NSCLC = tested on: EKVX NSCLC
HCC-2998 colon = tested on: HCC-2998 colon
HCT-116 colon = tested on: HCT-116 colon
HCT-15 colon = tested on: HCT-15 colon
HL-60(TB) leukemia = tested on: HL-60(TB) leukemia
HOP-18 NSCLC = tested on: HOP-18 NSCLC
HOP-92 NSCLC = tested on: HOP-92 NSCLC
HT29 colon = tested on: HT29 colon
IGROV1 ovarian = tested on: IGROV1 ovarian
K-562 leukemia = tested on: K-562 leukemia
KM20L2 colon = tested on: KM20L2 colon
LXFL 529 NSCLC = tested on: LXFL 529 NSCLC
M14 melanoma = tested on: M14 melanoma
M19-MEL melanoma = tested on: M19-MEL melanoma
MALME-3M melanoma = tested on: MALME-3M melanoma
MOLT-4 leukemia = tested on: MOLT-4 leukemia
NCI-H226 lung = tested on: NCI-H226 lung
NCI-H23 lung = tested on: NCI-H23 lung
NCI-H460 lung = tested on: NCI-H460 lung
NCI-H522 lung = tested on: NCI-H522 lung
OVCAR-3 ovarian = tested on: OVCAR-3 ovarian
OVCAR-4 ovarian = tested on: OVCAR-4 ovarian
OVCAR-8 ovarian = tested on: OVCAR-8 ovarian
RPMI-8226 leukemia = tested on: RPMI-8226 leukemia
RXF 393 renal = tested on: RXF 393 renal
SF-268 CNS = tested on: SF-268 CNS
SF-295 CNS = tested on: SF-295 CNS
SF-539 CNS = tested on: SF-539 CNS
SK-MEL-28 melanoma = tested on: SK-MEL-28 melanoma
SK-MEL-5 melanoma = tested on: SK-MEL-5 melanoma
SK-OV-3 ovarian = tested on: SK-OV-3 ovarian
SN12C renal = tested on: SN12C renal
SNB-19 CNS = tested on: SNB-19 CNS
SNB-75 CNS = tested on: SNB-75 CNS
SR leukemia = tested on: SR leukemia
SW-620 colon = tested on: SW-620 colon
TK-10 renal = tested on: TK-10 renal
U251 CNS = tested on: U251 CNS
UO-31 renal = tested on: UO-31 renal
XF 498 CNS = tested on: XF 498 CNS
DMS 114 small cell lung = tested on: DMS 114 small cell lung
HOP-62 NSCLC = tested on: HOP-62 NSCLC
KM12 colon = tested on: KM12 colon
LOX IMVI melanoma = tested on: LOX IMVI melanoma
OVCAR-5 ovarian = tested on: OVCAR-5 ovarian
SNB-78 CNS = tested on: SNB-78 CNS
UACC-257 melanoma = tested on: UACC-257 melanoma
UACC-62 melanoma = tested on: UACC-62 melanoma

Measured: TGI

CC1CN1P1(N2CC2C)=NP(N2CC2C)(N2CC2C)=NP(N2CC2C)(N2CC2C)=N1 (configuration not stated)
> 50 µM: 786-0 renal | A498 renal | A549 NSCLC | ACHN renal | CAKI-1 renal | CCRF-CEM leukemia | COLO 205 colon | DLD-1 colon | DMS 273 small cell lung | EKVX NSCLC | HCC-2998 colon | HCT-116 colon | HCT-15 colon | HL-60(TB) leukemia | HOP-18 NSCLC | HOP-92 NSCLC | HT29 colon | IGROV1 ovarian | K-562 leukemia | KM20L2 colon | LXFL 529 NSCLC | M14 melanoma | M19-MEL melanoma | MALME-3M melanoma | MOLT-4 leukemia | NCI-H226 lung | NCI-H23 lung | NCI-H460 lung | NCI-H522 lung | OVCAR-3 ovarian | OVCAR-4 ovarian | OVCAR-8 ovarian | RPMI-8226 leukemia | RXF 393 renal | SF-268 CNS | SF-295 CNS | SF-539 CNS | SK-MEL-28 melanoma | SK-MEL-5 melanoma | SK-OV-3 ovarian | SN12C renal | SNB-19 CNS | SNB-75 CNS | SR leukemia | SW-620 colon | TK-10 renal | U251 CNS | UO-31 renal | XF 498 CNS

CCN(CC)CC(C(=O)Nc1c(C)cccc1C)/C(C)=N\NC(=O)C[N+](C)(C)C (configuration not stated)
> 100 µM: 786-0 renal | A549 NSCLC | ACHN renal | CAKI-1 renal | COLO 205 colon | DLD-1 colon | DMS 114 small cell lung | DMS 273 small cell lung | HCC-2998 colon | HCT-116 colon | HCT-15 colon | HL-60(TB) leukemia | HOP-62 NSCLC | HOP-92 NSCLC | HT29 colon | IGROV1 ovarian | K-562 leukemia | KM12 colon | KM20L2 colon | LOX IMVI melanoma | LXFL 529 NSCLC | M14 melanoma | M19-MEL melanoma | MALME-3M melanoma | MOLT-4 leukemia | NCI-H226 lung | NCI-H23 lung | NCI-H460 lung | NCI-H522 lung | OVCAR-3 ovarian | OVCAR-4 ovarian | OVCAR-5 ovarian | OVCAR-8 ovarian | RPMI-8226 leukemia | RXF 393 renal | SF-268 CNS | SF-295 CNS | SF-539 CNS | SK-MEL-28 melanoma | SK-MEL-5 melanoma | SK-OV-3 ovarian | SN12C renal | SNB-19 CNS | SNB-75 CNS | SNB-78 CNS | SR leukemia | SW-620 colon | TK-10 renal | U251 CNS | UACC-257 melanoma | UACC-62 melanoma | UO-31 renal | XF 498 CNS

— PubChem BioAssay (NCI)
